Results reported in patent publication US20130269064A1, “INSECTICIDAL COMPOUNDS” (SYNGENTA PARTICIPATIONS AG, priority 2010, published 2013).

Experiments:
Assay type in all cases: in vivo
[1] = system: Diabrotica balteata; experiment: Diabrotica balteata (corn root worm) artificial diet test; settings: 120 h, 200 ppm (concentration in well 18 ppm), L2 larvae, 5 days, larval mortality and growth regulation
Description: Diabrotica balteata (Corn Root Worm): A 24-well microtiter plate (MTP) with artificial diet was treated with test solutions at an application rate of 200 ppm (concentration in well 18 ppm) by pipetting. After drying, the MTP's were infested with larvae (L2) (6-10 per well). After an incubation period of 5 days, samples were checked for larval mortality, and growth regulation.

[2] = system: Thrips tabaci; experiment: Thrips tabaci (onion thrips) sunflower leaf disc test; settings: foliar, 168 h, 200 ppm sprayed on sunflower leaf discs, mixed ages, 7 days, mortality
Description: Thrips tabaci (Onion Thrips): Sunflower leaf discs were placed on agar in a 24-well microtiter plate and sprayed with test solutions at an application rate of 200 ppm. After drying, the leaf discs were infested with an […] population of mixed ages. After an incubation period of 7 days, samples were checked for mortality.

[3] = system: Tetranychus urticae; experiment: Tetranychus urticae (two-spotted spider mite) bean leaf disc test; settings: foliar, 192 h, 200 ppm sprayed on bean leaf discs, mixed ages, 8 days, egg, larval and adult mortality
Description: Tetranychus urticae (Two-Spotted Spider Mite): Bean leaf discs on agar in 24-well microtiter plates were sprayed with test solutions at an application rate of 200 ppm. After drying, the leaf discs are infested with mite populations of mixed ages. 8 days later, discs are checked for egg mortality, larval mortality, and adult mortality.

[4] = system: Heliothis virescens; experiment: Heliothis virescens (tobacco budworm) egg/artificial diet test; settings: 96 h, 200 ppm (concentration in well 18 ppm), eggs 0-24 h old on artificial diet, 4 days, egg mortality, larval mortality, growth regulation
Description: Heliothis virescens (Tobacco Budworm): Eggs (0-24 h old) were placed in 24-well microtiter plate on artificial diet and treated with test solutions at an application rate of 200 ppm (concentration in well 18 ppm) by pipetting. After an incubation period of 4 days, samples were checked for egg mortality, larval mortality and growth regulation.

[5] = system: Spodoptera littoralis; experiment: Spodoptera littoralis (Egyptian cotton leafworm) cotton leaf disc test; settings: foliar, 72 h, 200 ppm sprayed on cotton leaf discs, 5 L1 larvae, mortality, feeding behaviour, growth regulation 3 DAT
Description: Spodoptera littoralis (Egyptian Cotton Leafworm): Cotton leaf discs were placed on agar in a 24-well microtiter plate and sprayed with test solutions at an application rate of 200 ppm. After drying, the leaf discs were infested with 5 L1 larvae. The samples were checked for mortality, feeding behaviour, and growth regulation 3 days after treatment (DAT).

[6] = system: Plutella xylostella; experiment: Plutella xylostella (diamond back moth) artificial diet test; settings: 144 h, 200 ppm (concentration in well 18 ppm), L2 larvae, 6 days, larval mortality and growth regulation
Description: Plutella xylostella (Diamond Back Moth): A 24-well microtiter plate (MTP) with artificial diet was treated with test solutions at an application rate of 200 ppm (concentration in well 18 ppm) by pipetting. After drying, the MTP's were infested with L2 larvae (7-12 per well). After an incubation period of 6 days, samples were checked for larval mortality and growth regulation.

Measured: pest or weed control at 200 ppm

Cn1nc(C(F)(F)C(F)(F)F)c(C(F)(F)F)c1NC(=O)c1cccc(NC(=O)c2ccc([N+](=O)[O-])cc2Cl)c1 [Compound D9]
≥ 80%: [1] | [2] | [3]

Cc1cc(C#N)ccc1C(=O)Nc1cc(C(=O)Nc2c(C(F)(F)F)c(C(F)(F)C(F)(F)F)nn2C)ccc1C#N [Compound A1, 3-(4-cyano-2-methyl-Benzoyl) amino-4-cyano-N-(2-methyl-5-pentafluoroethyl-4-trifluoromethyl-2H-pyrazol-3-yl)-benzamide]
≥ 80%: [4] | [1] | [2] | [3]

Cn1nc(C(F)(F)C(F)(F)F)c(C(F)(F)F)c1NC(=O)c1cccc(NC(=O)c2cc(Cl)ccc2F)c1 [Compound D8]
≥ 80%: all assays above

Cn1nc(C(F)(F)C(F)(F)F)c(C(F)(F)F)c1NC(=O)c1cccc(NC(=O)c2ccccc2)c1F [Compound B16]
≥ 80%: all assays above

Cn1nc(C(F)(F)C(F)(F)F)c(C(F)(F)F)c1NC(=O)c1cccc(NC(=O)c2ccc(F)cc2)c1 [Compound D17]
not listed: [4]
≥ 80%: all other assays above

Cn1nc(C(F)(F)C(F)(F)F)c(C(F)(F)F)c1NC(=O)c1cccc(NC(=O)c2ccc(F)cc2Cl)c1 [Compound D19]
not listed: [4]
≥ 80%: all other assays above
